Results as given in the supplement of paper PMC4862054.

What was measured:
Conditions in all cases: incubation time: 72 h
BT-474 = assay: drug sensitivity score (DSS), CellTiter-Glo (DSS (AUC-based score)); higher = stronger drug effect (viability inhibition or cytotoxicity); extreme values may be limits of the assay
In short: (§1)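 The drug sensitivity score reflects the area under a fitted dose-response curve. To obtain it, breast cancer cells in 20 µl suspension were seeded into 384-well plates containing compound at 5 concentrations, 10-fold apart over a compound-specific 10,000-fold range, and incubated 72 h. CellTox Green fluorescence (485/520 nm) was read first and CellTiter-Glo luminescence second, after 10 min at room temperature. Each plate was normalised to 0.1 % DMSO and a positive kill control.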

BT-549 = assay: as above
In short: as §1

CAL-120 [1] = assay: as above
In short: as §1

CAL-148 = assay: as above
In short: as §1

CAL-51 [2] = assay: as above
In short: as §1

CAL-85-1 = assay: as above
In short: as §1

DU-4475 = assay: as above
In short: as §1

HCC1143 = assay: as above
In short: as §1

HCC1599 = assay: as above
In short: as §1

HCC1937 = assay: as above
In short: as §1

HDQ-P1 = assay: as above
In short: as §1

Hs578T = assay: as above
In short: as §1

MCF-10A = assay: as above
In short: as §1

MDA-MB-231 = assay: as above
In short: as §1

MDA-MB-436 [3] = assay: as above
In short: as §1

MDA-MB-453 = assay: as above
In short: as §1

MDA-MB-468 = assay: as above
In short: as §1

MFM-223 [4] = assay: as above
In short: as §1

SK-BR-3 = assay: as above
In short: as §1

CAL-120 [5] = assay: drug sensitivity score (DSS), CellTox Green (DSS (AUC-based score)); higher = stronger drug effect (viability inhibition or cytotoxicity); extreme values may be limits of the assay
In short: as §1

CAL-51 [6] = assay: as above
In short: as §1

MDA-MB-436 [7] = assay: as above
In short: as §1

MFM-223 [8] = assay: as above
In short: as §1

Measured: drug sensitivity score

CCc1c(C(=O)C(N)=O)c2c(OCC(=O)O)cccc2n1Cc1ccccc1 [Varespladib]
0: all assays above
